Active and inactive are the calls of the source. No cut-off for these calls is given here.
Key:
[1] = tested on: A549; test: Inhibition of mitochondrial respiration in human Trametinib-resistant A549 cell assessed as reduction in maximal oxygen consumption rate at 50 to 200 nM incubated for 12 hrs by seahorse XF96 flux analyzer; format: functional, cell-based; settings: dose 50-200 nM
[2] = tested on: NCI-H460; test: Inhibition of mitochondrial complex I NADH-ubiquinone oxidoreductase in human NCI-H460 cells assessed as reduction in NAD+/NADH ratio at 1 uM incubated for 12 hrs by WST-8 method relative to control; format: cell-based
[3] = Tmax in ICR mouse at 1 mg/kg, iv measured for 24 hrs by LC-MS/MS analysis; format: ADME, organism-based; settings: in vivo
[4] = tested on: NCI-H358; test: Antiproliferative activity against human NCI-H358 cells with low-OXPHOS assessed as reduction in cell viability incubated for 5 days by CellTiter 96 cell proliferation assay; format: functional, cell-based; settings: NCI-H358, 120 h
[5] = Toxicity in mouse xenografted with human NCI-H460 cells with high-OXPHOS assessed as pathological changes in spleen at 30 mg/kg, po bid administered for 18 days by H and E staining based analysis; format: organism-based; settings: in vivo, 432 h, time 18 day
[6] = tested on: NCI-H441; test: Antiproliferative activity against human NCI-H441 cells with high-OXPHOS assessed as reduction in cell viability incubated for 5 days by CellTiter 96 cell proliferation assay; format: functional, cell-based; settings: NCI-H441, 120 h
[7] = tested on: NCI-H460; test: Induction of apoptosis in human NCI-H460 cells with high-OXPHOS harboring KRAS Q61H mutant assessed as late apoptotic cells at 20 nM incubated for 72 hrs by Annexin V-FITC/propidium iodide staining based flow cytometry analysis (reference value: 5.68%); format: functional
[8] = tested on: NCI-H460; test: Induction of apoptosis in human NCI-H460 cells with high-OXPHOS harboring KRAS Q61H mutant assessed as late apoptotic cells at 20 nM incubated for 72 hrs in presence of trametinib by Annexin V-FITC/propidium iodide staining based flow cytometry analysis (reference value: 5.68%); format: functional
[9] = biological target: T1, Cytochrome P450 1A2 (Homo sapiens, UniProt P05177); test: Inhibition of CYP1A2 in human liver microsomes; format: ADME, Microsome
T1 sequence (P05177 whole entry): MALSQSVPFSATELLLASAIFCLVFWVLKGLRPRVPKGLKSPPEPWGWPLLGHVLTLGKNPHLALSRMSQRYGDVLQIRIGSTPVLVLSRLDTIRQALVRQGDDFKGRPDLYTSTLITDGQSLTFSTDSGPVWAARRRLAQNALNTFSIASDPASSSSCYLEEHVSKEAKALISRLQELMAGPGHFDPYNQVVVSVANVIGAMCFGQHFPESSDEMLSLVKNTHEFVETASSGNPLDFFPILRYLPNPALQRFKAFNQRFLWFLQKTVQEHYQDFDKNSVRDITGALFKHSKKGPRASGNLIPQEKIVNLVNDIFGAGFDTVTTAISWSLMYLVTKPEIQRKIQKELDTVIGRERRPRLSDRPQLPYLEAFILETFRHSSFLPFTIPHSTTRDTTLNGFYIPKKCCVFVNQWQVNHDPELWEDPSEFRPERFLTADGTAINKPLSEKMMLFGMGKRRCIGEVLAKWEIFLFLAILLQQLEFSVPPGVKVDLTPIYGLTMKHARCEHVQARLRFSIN

[10] = Cytotoxicity against human MRC5 cells assessed as reduction in cell viability incubated for 5 days by CellTiter 96 cell proliferation assay; format: toxicity, cell-based
[11] = Oral bioavailability in ICR mouse at 10 mg/kg measured for 24 hrs by LC-MS/MS analysis; format: ADME, organism-based; settings: in vivo
[12] = tested on: A549; test: Potentiation of trametinib-induced cytotoxicity against human Trametinib-resistant A549 cells with high-OXPHOS harboring KRAS G12S mutant assessed as reduction in cell viability at 10 to 20 uM incubated for 72 hrs by CellTiter 96 cell proliferation assay; format: functional, cell-based; settings: dose 10-20 µM
[13] = tested on: NCI-H460; test: Antitumor activity against human NCI-H460 cells with high-OXPHOS xenografted in mouse assessed as reduction in trametinib-induced oxidative phosphorylation at 30 mg/kg, po bid administered for 18 days; format: functional, organism-based; settings: time 18.0 day
[14] = Cytotoxicity against human HPNE cells assessed as reduction in cell viability incubated for 5 days by CellTiter 96 cell proliferation assay; format: toxicity, cell-based
[15] = tested on: NCI-H460; test: Inhibition of mitochondrial complex III in human NCI-H460 cells at 1 uM incubated for 12 hrs by seahorse XF96 metabolic flux analyzer relative to control; format: cell-based
[16] = Toxicity in mouse xenografted with human NCI-H460 cells with high-OXPHOS assessed as reduction in serum creatinine level at 30 mg/kg, po bid administered for 18 days; format: organism-based; settings: in vivo, 432 h, time 18 day
[17] = AUC (0 to infinity) in ICR mouse at 1 mg/kg, iv measured for 24 hrs by LC-MS/MS analysis; format: ADME, organism-based; parameters: dose 1 mg/kg, time 24 hrs, route iv; settings: in vivo
[18] = tested on: NCI-H460; test: Induction of apoptosis in human NCI-H460 cells with high-OXPHOS assessed as late apoptotic cells at 30 nM incubated for 48 hrs by Annexin V-FITC/propidium iodide staining based flow cytometry analysis (reference value: 12.8%); format: functional
[19] = tested on: A549; test: Induction of apoptosis in human Trametinib-resistant A549 cells with high-OXPHOS harboring KRAS G12S mutant assessed as early apoptotic cells at 20 nM incubated for 72 hrs by Annexin V-FITC/propidium iodide staining based flow cytometry analysis (reference value: 4.31%); format: functional
[20] = tested on: A549; test: Antiproliferative activity against human Trametinib-resistant A549 cells with high-OXPHOS assessed as reduction in cell viability incubated for 5 days by CellTiter 96 cell proliferation assay; format: functional, cell-based; settings: A549, 120 h
[21] = tested on: NCI-H460; test: Potentiation of trametinib-induced cytotoxicity against human NCI-H460 cells with high-OXPHOS harboring KRAS Q61H mutant assessed as reduction in cell viability at 10 to 20 uM incubated for 72 hrs by CellTiter 96 cell proliferation assay; format: functional, cell-based; settings: dose 10-20 µM
[22] = tested on: NCI-H460; test: Potentiation of trametinib-induced antitumor activity against human NCI-H460 cells with high-OXPHOS xenografted in mouse assessed as reduction in tumor volume at 30 mg/kg, po bid administered for 18 days and measured every 3 days by electronic caliper analysis; format: functional, organism-based; settings: time 18.0 day
[23] = tested on: NCI-H358; test: Inhibition of mitochondrial respiration in human NCI-H358 cells with low-OXPHOS assessed as reduction in oxygen consumption rate at 50 to 200 nM incubated for 12 hrs by seahorse XF96 flux analyzer; format: functional, cell-based; settings: dose 50-200 nM
[24] = AUC (0 to infinity) in ICR mouse at 10 mg/kg, po measured for 24 hrs by LC-MS/MS analysis; format: ADME, organism-based; parameters: dose 10 mg/kg, time 24 hrs, route po; settings: in vivo
[25] = tested on: NCI-H460; test: Antitumor activity against human NCI-H460 cells with high-OXPHOS xenografted in mouse assessed as tumor growth inhibition at 30 mg/kg, po bid administered for 18 days and measured every 3 days by electronic caliper analysis; format: functional, organism-based; settings: time 18.0 day
[26] = tested on: NCI-H460; test: Induction of apoptosis in human NCI-H460 cells with high-OXPHOS harboring KRAS Q61H mutant assessed as early apoptotic cells at 20 nM incubated for 72 hrs in presence of trametinib by Annexin V-FITC/propidium iodide staining based flow cytometry analysis (reference value: 1.95%); format: functional
[27] = tested on: NCI-H460; test: Inhibition of mitochondrial respiration in human NCI-H460 cells with high-OXPHOS assessed as reduction in basal oxygen consumption rate incubated for 12 hrs by seahorse XF96 flux analyzer; format: functional, cell-based; settings: dose 50-200 nM

For `Cc1c(C(=O)N2CCN(Cc3ccc(OCC(F)(F)F)cc3)CC2)nnn1Cc1ccc(C(=O)Nc2ccc(C(F)(F)F)cc2)nc1`, which inhibition [1] is on record?
Its inhibition is “Active”.

What about the inhibition [2] of the same compound?
Its inhibition is 87.5%.

What about the Tmax [3] of the same compound?
The Tmax was 4.8 min.

What about the IC50 [4] of the same compound?
The IC50 was greater than 1000 nM.

And the Activity [5]?
The Activity was “Non-Toxic”.

And the IC50 [6]?
Its IC50 is 29.7 nM.

What about the Activity [7] of the same compound?
The Activity was 16.2%.

What about the Activity [8] of the same compound?
Its Activity is 34.1%.

And the IC50 [9]?
The IC50 was greater than 50000 nM.

And the IC50 at 5 days [10]?
The IC50 at 5 days was greater than 10000 nM.

And the bioavailability [11]?
The bioavailability was 64.3%.

And the Activity [12]?
Its Activity is “Active”.

What about the Activity [13] of the same compound?
The Activity was “Active”.

And the IC50 at 5 days [14]?
The IC50 at 5 days was greater than 10000 nM.

And the inhibition [15]?
Its inhibition is 28.1%.

And the Activity [16]?
The Activity was “Non-Toxic”.

And the AUC(0-inf) [17]?
The AUC(0-inf) was 359 ng·h/mL.

What about the Activity [18] of the same compound?
The Activity was 37.8%.

And the Activity [19]?
Its Activity is 8.57%.

And the IC50 [20]?
The IC50 was 15.1 nM.

And the Activity [21]?
The Activity was “Active”.

And the Activity [22]?
The Activity was “Active”.

What about the inhibition [23] of the same compound?
Its inhibition is “inactive”.

And the AUC(0-inf) [24]?
Its AUC(0-inf) is 2300 ng·h/mL.

What about the inhibition [25] of the same compound?
The inhibition was “Active”.

And the Activity [26]?
Its Activity is 26.2%.

And the inhibition [27]?
The inhibition was “Dose-Dependent Effect”.

Source: ChEMBL document CHEMBL5380875, “Discovery of a Potent and Oral Available Complex I OXPHOS Inhibitor That Abrogates Tumor Growth and Circumvents MEKi Resistance” (J Med Chem, 2023)
